Where a name gives a salt, the structure may show the parent alone. Read-outs that look alike come from different tables or passages of the source.
Assays:
Acetylcholinesterase = molecular target: T1, Acetylcholinesterase (Rattus norvegicus, UniProt P37136); experiment: biochemical; parameters: species or system Male Wistar rats
T1 construct: corpora striata dissected free, weighted and homogenized in 19 volumes; from tissue; host or cells: rat corpus striatum homogenate
T1 sequence (P37136 32-614): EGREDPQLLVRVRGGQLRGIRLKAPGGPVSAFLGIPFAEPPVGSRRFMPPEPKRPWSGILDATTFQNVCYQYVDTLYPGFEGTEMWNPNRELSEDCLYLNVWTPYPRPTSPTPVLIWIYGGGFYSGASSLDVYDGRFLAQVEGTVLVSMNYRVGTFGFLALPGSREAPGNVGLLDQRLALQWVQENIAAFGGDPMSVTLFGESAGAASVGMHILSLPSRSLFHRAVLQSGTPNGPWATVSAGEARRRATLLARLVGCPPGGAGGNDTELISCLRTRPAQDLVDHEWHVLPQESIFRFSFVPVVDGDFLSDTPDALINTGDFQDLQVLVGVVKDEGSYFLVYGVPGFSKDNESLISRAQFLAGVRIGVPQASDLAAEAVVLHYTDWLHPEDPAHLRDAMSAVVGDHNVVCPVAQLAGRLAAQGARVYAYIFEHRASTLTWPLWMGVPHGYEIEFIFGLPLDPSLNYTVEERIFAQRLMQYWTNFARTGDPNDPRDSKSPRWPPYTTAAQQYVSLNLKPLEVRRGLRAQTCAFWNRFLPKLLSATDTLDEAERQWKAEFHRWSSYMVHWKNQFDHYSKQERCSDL

Monoamine Oxidase A = molecular target: T2, Monoamine Oxidase A (Rattus norvegicus, UniProt P21396); experiment: in vitro inhibition of monoamine oxidase assay, monoamine oxidase-A; format: biochemical, Male Wistar rats; settings: rat brain mitochondrial monoamine oxidase; substrate [3H]-5-hydroxytryptamine 200 μM; 30 minutes at 37° C.
T2 construct: serves as the tissue source for mitochondrial monoamine oxidase; from tissue; host or cells: rat whole brain minus cerebellum, P2 mitochondrial pellet
T2 sequence (P21396 1-526): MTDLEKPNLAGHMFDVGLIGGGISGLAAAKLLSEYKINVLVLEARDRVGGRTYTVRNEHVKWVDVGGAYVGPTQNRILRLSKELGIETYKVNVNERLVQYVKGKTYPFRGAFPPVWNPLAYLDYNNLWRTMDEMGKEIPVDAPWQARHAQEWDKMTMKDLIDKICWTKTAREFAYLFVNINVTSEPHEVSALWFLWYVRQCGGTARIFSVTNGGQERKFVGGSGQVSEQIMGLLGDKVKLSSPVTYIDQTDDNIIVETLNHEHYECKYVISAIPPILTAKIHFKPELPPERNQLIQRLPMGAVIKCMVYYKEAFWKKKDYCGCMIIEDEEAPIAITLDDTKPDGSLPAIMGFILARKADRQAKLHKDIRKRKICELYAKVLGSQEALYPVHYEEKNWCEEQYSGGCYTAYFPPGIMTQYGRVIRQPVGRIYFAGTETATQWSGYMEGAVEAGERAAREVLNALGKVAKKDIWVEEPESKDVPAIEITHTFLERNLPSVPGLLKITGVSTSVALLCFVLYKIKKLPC
Description: In this assay, a modification of an assay described by M. V. Kindt, et al., Europ. J. Pharmnacol. 146: 313-318 1988.
1. Phosphate buffer (0.5 M), pH 7.4; 134.4 g dibasic sodium phosphate heptahydrate q.s. to 1 liter in distilled water (A) 17.3 g monobasic sodium phosphate q.s. to 250 ml in distilled water (B) Adjust pH of A to 7.4 by slowly adding B (volumes as needed) Dilute 1:10 in distilled water (0.05 M phosphate buffer, pH 7.4) 2. 0.25 M Sucrose (phosphate buffered): 21.4 g sucrose, q.s. to 250 nil with 0.05 M phosphate buffer a. serotonin creatine sulphate (5-hydroxytryptamine) is obtained from Sigma Chemical Company. A 5 mM stock solution ig made up in 0.01 N-hydrochloric acid. The solution is used to dilute the specific activity of the [^3H]-hydroxytryptamine. […]
b. [^3H]-5-hydroxytryptamine binoxalate (20-30 Ci/mmol) is obtained from New England Nuclear. c. Add 12 μl of [^3H]-5-hydroxytryptamine to 2 ml of the 5 mM 5-hydroxytryptamine solution. (Final amine concentration in the assay is 200 μM: see below.)
5. Equal amounts of monoamine oxidase-A (5-hydroxyttyptamine) and monoamine oxidase-B (β-phenethylamine) substrates are combined for simultaneously testing both monoamine oxidase types, i.e., mixed stock solution of 2.5 mM 5-hydroxytryptamine and 2.5 mM β-phenethylamine. 40 μl of this mixed solution gives a 200 μM final concentration of each amine in the assay. When testing only one monoamine oxidase type, the individual 5 mM stock solutions must be diluted 1:1 with distilled water prior to adding 40 μl to the incubation mixture; i.e., same 200 μM final amine concentration.
6. Stock solutions of test drugs are made up in appropriate vehicles and serially diluted to give final concentrations ranging from 10^−7 to 10^−3 molar in the assay. […]
Tubes are preincubated for 15 minutes at 37° C. and the assay is started by adding 40 μl of combined substrate ([^3H]-5-hydroxytryptamine and [^14C]-β-phenethylamin) at 15 second intervals. […] Tissue blank values are determined by adding the acid before the radioactive substrate. […] IC50 values are determined by log-probit analysis.

Monoamine Oxidase B = molecular target: T3, Monoamine Oxidase B (Rattus norvegicus, UniProt P19643); experiment: in vitro inhibition of monoamine oxidase assay, monoamine oxidase-B; format: biochemical, Male Wistar rats; settings: rat brain mitochondrial monoamine oxidase; substrate [14C]-β-phenethylamine 200 μM; 30 minutes at 37° C.
T3 construct: serves as the tissue source for mitochondrial monoamine oxidase; from tissue; host or cells: rat whole brain minus cerebellum, P2 mitochondrial pellet
T3 sequence (P19643 1-520): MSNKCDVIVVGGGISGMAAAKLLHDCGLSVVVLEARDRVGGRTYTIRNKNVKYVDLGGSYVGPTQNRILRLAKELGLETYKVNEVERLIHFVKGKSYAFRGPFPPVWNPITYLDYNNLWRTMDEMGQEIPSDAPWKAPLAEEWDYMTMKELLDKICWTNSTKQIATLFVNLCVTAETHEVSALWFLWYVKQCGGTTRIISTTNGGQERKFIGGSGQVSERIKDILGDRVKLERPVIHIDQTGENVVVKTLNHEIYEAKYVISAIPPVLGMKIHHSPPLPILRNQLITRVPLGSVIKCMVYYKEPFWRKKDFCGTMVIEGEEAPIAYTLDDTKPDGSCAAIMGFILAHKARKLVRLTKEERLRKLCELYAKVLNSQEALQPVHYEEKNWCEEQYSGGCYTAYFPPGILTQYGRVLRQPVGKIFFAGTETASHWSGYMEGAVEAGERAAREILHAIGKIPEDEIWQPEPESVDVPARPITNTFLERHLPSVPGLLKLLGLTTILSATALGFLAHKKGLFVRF
Description: Phosphate buffer (0.5 M), pH 7.4; 134.4 g dibasic sodium phosphate heptahydrate q.s. to 1 liter in distilled water (A) 17.3 g monobasic sodium phosphate q.s. to 250 ml in distilled water (B) Adjust pH of A to 7.4 by slowly adding B (volumes as needed) Dilute 1:10 in distilled water (0.05 M phosphate buffer, pH 7.4) 2. 0.25 M Sucrose (phosphate buffered): 21.4 g sucrose, q.s. to 250 nil with 0.05 M phosphate buffer a. β-phenethylamine is obtained from Sigma Chemical Company. A 5 mM stock solution is made up in 0.01 N-hydrochloric acid. The solution is used to dilute the specific activity of the [^14C]-β-phenethylamine.
b. β-[ethyl-1-^14C]-phenethylamine hydrochloride (40-50 mCi/mmol) is obtained from New England Nuclear. c. Add 12 μl of [^14C]-β-phenothylaamine to 2 ml of the 5 mM β-phenethylamine solution. (Final amine concentration in the assay is 200 μM: see below.) […]

| Structure (SMILES) | IC50 (Acetylcholinesterase) | IC50 (Monoamine Oxidase A) | further results |
| --- | --- | --- | --- |
| Cn1c2c(c3ccccc31)CCC21CCNCC1 [1,4-Dihydro-4-methylspiro[cyclopent[b]indole-3(2H), 4′-piperidine]hydrochloride] | 84.1 µM |  |  |
| COc1cccc(CN2CCC3(CCc4c3n(C)c3ccccc43)CC2)c1 [1,4-Dihydro-1′-(3-methoxyphenyl)methyl-4-methylspiro[cyclopent[b]indole-3(2H), 4′piperidine]] |  | 51.2 µM |  |
| Cn1c2c(c3cc(O)ccc31)CCC21CCN(Cc2ccccc2)CC1 [1,4-Dihydro-7-hydroxy-4-methyl-1′-phenylmethylspiro[cyclopent[b]indole-3(2H), 4′-piperidine hydrochloride] | 20.4 µM |  |  |
| COc1ccc(CN2CCC3(CCc4c3n(C)c3ccccc43)CC2)cc1 [1,4-Dihydro-1′-(4-methoxyphenyl)methyl-4-methylspiro[cyclopent[b]indole-3(2H), 4′-piperidine]] |  | 98.6 µM | IC50 (Acetylcholinesterase; read-out: Inhibition of Acetylcholinesterase Activity IC50): 65.2 µM; IC50 (Monoamine Oxidase B): 125 µM |
| COc1ccc(NN=C2CCCC23CCNCC3)cc1 (as salt: hydrochloride) [8-Azaspiror4,5]decane-1-[N′-(4-methoxy)phenyl]hydrazone hydrochloride] |  |  | melting point: 252 to 253 °C |
| CN(C)C(=O)Oc1ccc2c(c1)c1c(n2C)C2(CCNCC2)CC1 [1,4-Dihydro-7-dimethylaminocarbonyloxy-4-methylspirorcyclopentfblindole-3(2H), 4′-piperidine]hemihydrate] | 64 µM |  |  |
| COc1ccc(NN=C2CCCC23CCNCC3)cc1 [8-Azaspiror4,5]decane-1-[N′-(4-methoxy)phenyl]hydrazone hydrochloride] |  | 37.2 µM | IC50 (Monoamine Oxidase B): 3.7 µM |

— patent US6479501B2 (priority 1996, dated 2002)
